Here are results for 6 compounds from PMC12563652 (International Journal of Molecular Sciences, 2025).

In general, EC50 refers to the midpoint of the concentration-response curve. One may read the IC50 as the point on the concentration scale where inhibition reaches its midpoint. In general, Ki refers to a measure of affinity in units of concentration, obtained from inhibition or displacement. The low end stands for a stronger hold on the target, the high end for a looser hold on the target. In general, Emax refers to the greatest response seen or fitted, relative to the assay's reference.

Values joined by “and” are separate entries in the source; they are usually repeats but may differ in a detail not shown here. Identical values can stand only once. Like-named read-outs stand apart in the source and are kept apart here. Marks after values point to notes of the source that are not given here.

Data set [1] concerns the target T1, human TAAR1 (Homo sapiens, UniProt Q96RJ0).
T1 sequence (Q96RJ0 1-339): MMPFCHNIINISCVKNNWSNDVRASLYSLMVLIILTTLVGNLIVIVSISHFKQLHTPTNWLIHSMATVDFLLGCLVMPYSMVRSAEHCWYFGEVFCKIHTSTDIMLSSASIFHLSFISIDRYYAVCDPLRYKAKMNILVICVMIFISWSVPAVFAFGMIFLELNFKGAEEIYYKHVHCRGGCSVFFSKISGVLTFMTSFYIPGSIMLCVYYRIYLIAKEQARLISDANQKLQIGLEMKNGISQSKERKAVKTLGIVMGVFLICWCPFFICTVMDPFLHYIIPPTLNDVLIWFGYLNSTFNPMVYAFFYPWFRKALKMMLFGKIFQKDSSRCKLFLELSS
To be noted: at 10^−4 M; cited from earlier work.

A further data set concerns the target T2, α2A-adrenoceptor (Homo sapiens, UniProt P08913).
T2 sequence (P08913 1-465): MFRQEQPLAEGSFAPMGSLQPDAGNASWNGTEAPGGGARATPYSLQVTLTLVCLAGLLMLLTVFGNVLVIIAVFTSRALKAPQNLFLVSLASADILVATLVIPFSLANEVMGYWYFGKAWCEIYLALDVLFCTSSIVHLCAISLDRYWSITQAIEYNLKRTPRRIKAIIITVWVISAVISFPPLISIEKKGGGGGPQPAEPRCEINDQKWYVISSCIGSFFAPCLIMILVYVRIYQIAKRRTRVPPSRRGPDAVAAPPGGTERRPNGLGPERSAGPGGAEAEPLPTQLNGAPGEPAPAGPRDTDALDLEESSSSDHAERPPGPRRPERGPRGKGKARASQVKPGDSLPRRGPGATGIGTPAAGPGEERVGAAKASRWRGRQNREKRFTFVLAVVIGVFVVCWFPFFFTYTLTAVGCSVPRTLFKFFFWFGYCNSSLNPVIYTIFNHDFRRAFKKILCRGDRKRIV
To be noted: cited from earlier work.

Data set [2] has as its target T3, α2B-adrenoceptor (Homo sapiens, UniProt P18089).
T3 sequence (P18089 1-450): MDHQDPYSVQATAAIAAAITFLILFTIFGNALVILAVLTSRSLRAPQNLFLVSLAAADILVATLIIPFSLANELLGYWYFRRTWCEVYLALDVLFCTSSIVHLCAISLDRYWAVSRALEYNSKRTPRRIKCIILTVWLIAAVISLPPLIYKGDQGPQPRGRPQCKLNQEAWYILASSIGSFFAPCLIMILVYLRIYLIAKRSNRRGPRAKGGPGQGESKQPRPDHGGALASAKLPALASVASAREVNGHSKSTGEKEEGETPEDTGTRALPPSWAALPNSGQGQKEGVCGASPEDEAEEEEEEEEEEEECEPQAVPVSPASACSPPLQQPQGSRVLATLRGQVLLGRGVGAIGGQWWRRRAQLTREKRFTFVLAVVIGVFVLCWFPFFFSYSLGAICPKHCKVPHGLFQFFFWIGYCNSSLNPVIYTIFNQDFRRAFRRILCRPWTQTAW
To be noted: read-out: α2B Ant IC50; cited from earlier work.

The conditions of data set [3]: rat, intraperitoneal administration; cited from earlier work.
The next data set concerns the target α2-adrenoceptor. The data set can be described thus: Competitive radioligand binding, [3H]clonidine, rat cerebral cortex. To be noted: n.a. = no activity at 10–5 M.
Data set [4] deals with T3, α2B-adrenoceptor. The data set can be described thus: α2B-adrenoceptor intrinsic activity, antagonist mode (AequoScreen). It counts as cell-based. To be noted: n.a. = no activity at 10–5 M; read-out: α2B Ant IC50.
Data set [5] addresses T4, 5-HT2C serotoninergic receptor (Homo sapiens, UniProt P28335).
T4 sequence (P28335 33-458): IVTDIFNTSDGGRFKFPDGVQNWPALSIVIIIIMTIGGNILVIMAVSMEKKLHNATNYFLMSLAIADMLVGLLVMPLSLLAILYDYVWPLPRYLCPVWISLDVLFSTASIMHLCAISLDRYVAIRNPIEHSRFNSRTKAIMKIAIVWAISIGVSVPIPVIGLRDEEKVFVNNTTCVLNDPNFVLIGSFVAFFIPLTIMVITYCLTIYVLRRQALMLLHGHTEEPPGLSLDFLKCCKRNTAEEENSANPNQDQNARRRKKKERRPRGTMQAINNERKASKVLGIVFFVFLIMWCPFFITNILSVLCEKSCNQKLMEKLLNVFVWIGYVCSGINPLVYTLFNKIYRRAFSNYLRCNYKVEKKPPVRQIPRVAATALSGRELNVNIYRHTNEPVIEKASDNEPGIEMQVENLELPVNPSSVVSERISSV
The data set is described as follows: 5-HT2C intrinsic activity, antagonist mode (AequoScreen calcium mobilization). It is filed as cell-based.

The next data set deals with α1-adrenoceptor. The data set is described as follows: Competitive radioligand binding, [3H]prazosin, rat cerebral cortex. To be noted: n.a. = no activity at 10–5 M. The method, then: The competitive radioligand-binding assay assessed affinity for α1- and α2-adrenoceptors. Experiments were carried out in the rat cerebral cortex. […] The membrane preparation and assay technique followed the previously reported protocol. Radioactivity was measured using the MicroBeta2 scintillation counter (PerkinElmer, Kraków, Poland). The data was adjusted to match a single-site curve-fitting formula using Prism 8 (GraphPad Software, La Jolla, CA, USA), and the Ki values were estimated by means of the Cheng–Prusoff formula.

Data set [6] concerns the target T1, human TAAR1. The data set can be described thus: TAAR1 agonist activity, Hit Hunter cAMP assay. It is filed as cell-based.
The subject of data set [7] is platelet aggregation in rat whole blood. The data set is described as follows: In vitro collagen-induced platelet aggregation in rat whole blood (impedance aggregometry). It is filed as cell-based. Conditions: collagen 1.6 µg/mL. Here is the method: In vitro platelet aggregation assays were conducted using freshly collected whole blood from rats, utilizing the Multiplate platelet function analyzer (Roche Diagnostics, Mannheim, Germany)—a five-channel device that measures electrical impedance, following methods described previously. Upon stimulation, platelets adhere to and aggregate on dual metal sensors within the test cuvette, causing an increase in electrical resistance, which corresponds to the number of platelets attached to the electrodes.
Blood was collected from the carotid artery of the rat into tubes coated with hirudin (S-Monovette, Sarstedt, Germany). A volume of 300 μL of the anticoagulated blood was mixed with 300 μL of prewarmed isotonic saline that contained the test compound or a vehicle control (0.1% DMSO) and incubated at 37 °C for 3 min under continuous stirring. Aggregation was triggered by adding collagen (final concentration: 1.6 µg/mL). Platelet activity was monitored for 6 min. Multiplate V2.04 software calculated the area under the curve (AUC) for each measurement to determine average platelet response.

The subject of the next data set is TAAR1. To be noted: cited from earlier work.
The test system of data set [8] is Danio rerio larvae. The data set is described as follows: Nile red fluorescence fat metabolism assay in zebrafish larvae. It is filed as in vivo. Conditions: 20 µg/mL, 48 h incubation of larvae. The method, then:
The study was conducted based on the method described earlier by Jones et al.. Starting at 3 days after fertilization (dpf), larvae were placed into 6-well plates and incubated with the test solutions (compounds in E3: JP-14 at a concentration of 10 μg/mL or resveratrol or E3 alone) for 48 h. Resveratrol solution (20 μg/mL) was used as the reference compound. After 24 h, the solutions were replaced with new ones containing Nile red dye (9-diethylamino-5H-benzo[α]phenoxazine-5-one, Pol-aura, Poland) at a concentration of 100 ng/mL. Nile red is a selective fluorescent lipid dye used to stain lipid droplets. Incubation with the dye was therefore 24 h. Stock solution of Nile red was prepared earlier by dissolving it in acetone to a concentration of 500 μg/mL. After the incubation period, the larvae were rinsed 3 times with 0.1 M phosphate-buffered, pH 7.4 (PBS, Sigma-Aldrich, Schnelldorf, Germany) and anesthetized with cold […] tricaine solution (Sigma-Aldrich, Schnelldorf, Germany). Next, they were visualized under a fluorescence microscope (Zeiss.Discovery.V8, Zeiss, Oberkochen, Germany) and analyzed with ImageJ FIJI program (version 2.17.0).

Data set [9] concerns Danio rerio larvae. The data set can be described thus: Fructose-induced lipid disturbance in zebrafish larvae (Oil Red O). It is filed as in vivo. To be noted: 20 µg/mL with 4% fructose, 24 h. The method, then:
Zebrafish larvae 4 dpf were incubated for another 24 h with 4% fructose (final solution) in embryo medium to induce metabolic disorders. Tested solutions (compounds in E3: JP-14 at concentration of 20 μg/mL or resveratrol of 40 μg/mL) were added to fructose solution (8% in E3). The final concentration of JP-14 was 10 μg/mL or resveratrol of 20 μg/mL. The control group was incubated with E3 only. Incubation was carried out in a 6-well plate (10 larvae/well) to which 3 mL of liquid was added per well. Larvae were then collected, euthanized with tricaine, and transferred to 4% formaldehyde solution. After 24 h, larvae were washed 3 times with PBS (Sigma-Aldrich, Germany) and stained for neutral lipids, similar to previous studies. Larvae incubated for 1 h in a solution of 0.25% oil red O (ORO, Merck, Darmstadt, Germany) in 60% isopropanol (Merck, Germany). The samples were then rinsed three times with 60% isopropanol and washed 6 times with PBS, then imaged on a microscope (OPTA-TECH MN16, Warszawa, Poland) and analyzed with the ImageJ FIJI program. […] Next, the samples were centrifuged (10 min, 3000 rpm, MPW-260R, MPW Med Instruments, Warszawa, Poland), and the amount of dye in supernatant was determined spectrophotometrically (MuLTISKAN.GO, Thermo Fisher Scientific Inc. Waltham, MA, USA) at a wavelength of 495 nm.

As for 4-OH-guanabenz, the “TAAR1 Ago Emax (max Ago)” value on human TAAR1 [1] was 34%/ (10^−4M) ^a. For the same compound, the α2A-adrenoceptor activation on α2A-adrenoceptor (partial agonist) was 30%. Further, the concentration for a half-maximal effect (EC50) on α2A-adrenoceptor (read-out: α2A Ago EC50) is 316 nM. Besides, the 50% inhibitory concentration (IC50) at α2B-adrenoceptor [2] is 330 nM. In [3], the “highest (peak) level in brain” value is 64.5 ng/g and the tmax in brain is recorded as 15 min.

On to `COc1ccc(F)c(/C=N/NC(=N)N)c1F` [8 (JP10)], for which the Ki on α2-adrenoceptor worked out at 232 ± 8.5 nM. Besides, the IC50 on α2B-adrenoceptor [4] is 220 nM.

As for `CC[C@@H](CO)NC(=O)[C@@H]1C=C2c3cccc4c3c(cn4C)C[C@H]2N(C)C1` [MSE, methysergide], the EC50 in [5] was determined as 1.1 ± 0.1 nM.

Compound `Cc1ccc(N(CC2=NCCN2)c2cccc(O)c2)cc1` [PHT, phentolamine] yielded a Ki on α1-adrenoceptor of 10.9 ± 0.8 nM.

`N=C(N)N/N=C/c1c(Cl)cccc1Cl` [guanabenz]: on human TAAR1 [6] (% of maximal response induced by the full agonist tyramine, listed as GNB), the “TAAR1 Ago Emax” value was 60%. For the same compound, the EC50 at human TAAR1 [6] (cAMP accumulation, n.a. = no activity at 10–5 M, read-out: TAAR1 Ago EC50) is 300 nM and 301 nM; with TAAR1, 8.5 nM. Also, on human TAAR1 [6] (read-out: TAAR1 Ago Emax, % of maximal response induced by the full agonist tyramine), the Emax was determined as 50%. In addition, the entries for the “increase of collagen-induced platelet aggregation” value in data set [7] (10 µM) and in data set [7] (100 µM) were 31.81% and 22.73%, respectively. In addition, the “highest (peak) level in brain” value in [3] is recorded as 183.2 ng/g. In addition, the tmax in brain in data set [3] was 60 min.

On to `Oc1ccc(/C=C/c2cc(O)cc(O)c2)cc1` [resveratrol], for which the “Nile red detectable fat” value in the data set on Danio rerio larvae [8] was “slightly stronger effect”. Also, the fructose-induced yolk enlargement entry with Danio rerio larvae [9] is “Comparable effects”.
